The values below come from patent US20020173549A1, “Compositions and methods for treatment of mild cognitive impairment” (priority 2000, published 2002).

Assay [1] relates to APP holoprotein. In words: Cell-associated APP holoprotein in cultured astrocytes (Western blot). It counts as cell-based, rat. Details: basal APPh levels (compound by itself): unit of the concentration uncertain. How it is done:
(§1) Astrocytes are isolated from cortices from postnatal rats by methods standard in the art. In brief, dissected cortices are dissociated by trypsinization and trituration through a flame-polished Pasteur pipette. Cells are plated onto poly-L-lysine coated 35- or 100 mm culture dishes at densities of about 10-25 cells/mm^2. The initial culture media, minimal essential medium (MEM, Gibco) containing 10% horse serum (BioWhittaker), are aspirated after 2-5 h after plating to remove unattached cells and debris, and replaced with MEM containing 7.5% fetal bovine serum (FBS, BioWhittaker). Half the media is replaced with MEM/7.5% FBS twice weekly. Cells are kept at 37° C. in a humidified 5% CO2/95% air incubator. Media are changed twice weekly. […] Pharmacological manipulations are performed in serum-free media on 7-14 DIV confluent astrocytes.
To detect cell-associated proteins (APP or GFAP), astrocytes from 35 mm dishes are scraped into lysis buffer (60 mm Tris/HCl, 4% SDS, 20% glycerol, 1 mm dithiothreitol), ultrasonicated and boiled for […]. The total amount of cell protein per dish, estimated using the bicinchoninic acid assay, is not altered by pharmacological treatments. Bromphenol blue (0.1%) is added to each sample and equal amounts of protein ([…]) are loaded on 10% SDS polyacrylamide gels.
The amount of media or cell protein loaded for sodium dodecyl sulfate-polyacrylamide gel electrophoresis (10-20% SDS PAGE; Bio-Rad) is normalized for the amount of protein per sample. Proteins (equivalent to 100 μg cell protein/lane) are separated by electrophoresis, electroblotted onto polyvinylidene difluoride membranes (Immobilon-P, Millipore) and blocked in Tris-buffered saline with 0.15% Tween 20 (TEST) containing 5% powdered milk for 30 min. After 2×10 mm rinses in TBST, the membranes are incubated in TEST containing an appropriate antibody. Monoclonal antibodies 22C11 and GFAP (both from Boehringer Mannheim) are used to detect the N-terminus of APP and glial fibrillary acidic protein respectively; antisera R37 and R98 (gifts of Dr. F. Kametani, Tokyo Institute of Psychiatry) are used to detected the C-terminus and KPI motifs of APP respectively; antiserum C8 (gift of Dr. D. Selkoe, Women's Hospital, Harvard Medical School, Cambridge, Mass.) is used to detect the C-terminus of APP.
After an overnight incubation, membranes are rinsed in TBST then treated for 1 h with a peroxidase-linked secondary antibody. After several rinses in TEST, protein bands are visualized on Kodak X-AR films by an enhanced chemiluminescence method (Amersham). Optical densities of the protein bands are quantitated by laser scanning densitometry (LICE, Bromma, Sweden), and normalized to the densities of those bands generated under control conditions.
Measurements of cellular and secreted proteins, or of mRNA in treatment groups are normalized against those of control groups which are prepared in parallel and loaded onto the same blot. Analysis of variance (ANOVA) and t-tests are used to evaluate differences between groups (significance level, p=0.05), using drug treatments as the independent variable.

In assay [2] the test system is cAMP. In words: PGE2-induced cAMP increases in 10-day old rat cortical neurons. The format is cell-based. The settings on record: for effect on basal cAMP levels: no PGE2, cortical neurons; for effect on PGE2-stimulated cAMP levels: cortical neurons. Details: effect on basal cAMP levels: unit of the concentration uncertain. As for the experimental part:
FIG. 5. Effect of Cannabinoids on Prostaglandin E2-Induced cAMP Increases in 10-Day Old Rat Cortical Neurons.
Levels of cyclic AMP are measured with an [8-^3H]-cAMP assay kit (Amersham TRK 432) in astrocytes grown on 35 mm dishes. In brief, after aspirating the medium and rinsing twice with 1 ml ice cold PBS, the cells are scraped in 0.8 mL ice cold ethanol and sonicated. The cell suspension is incubated for […] at room temperature, centrifuged and the supernatant is dried in a rotary evaporator. After resuspension in 120 μL Tris/EDTA buffer, two duplicate samples of 50 μl each are mixed with the binding protein, [8-^3H] adenosine 3′,5′-cyclic phosphate tracer and incubated at 2-4° C. for 2 h. A charcoal suspension (100 μL) is added to the samples before centrifugation and 200 μL of the supernatant is removed for scintillation counting. The amount of cyclic AMP (pmol/mg protein) is estimated by comparing to known standards, and normalized to the amounts of whole cell protein as determined by the bicinchoninic acid assay (Sigma).
Referring now to FIG. 5, cell cultures of 10-day old cortical neurons are used to assess the affect of anandamide (50 M), methanandamide (10 M), and 2-AG (50 M) on PGE2-stimulated cAMP levels. PGE2 (50 M) is found to elevate cAMP levels about 1.6-fold over basal (control).
On the technique in general: cAMP levels reflect the balance of adenylyl cyclase and phosphodiesterase activity.

In assay [3] the test system is APP mRNA. Put plainly: APP mRNA levels in cultured astrocytes (Northern blot). The format is cell-based, rat. The settings on record: 1, 10 or 100 μM, 24 h. As for the experimental part:
as §1
Total RNA from astrocytes grown on 100 mm dishes is extracted by the acid guanidium thiocyanate-phenol chloroform method. […] The levels of APP mRNA are normalized to the amounts of G3PDH mRNA and expressed as a ratio to the levels of untreated, control cells.
Confluent monolayers of astrocytes prepared according to Example 8.1 are treated with serum-free media containing 50, 100, or 250 μM 8Br-cAMP for varying durations (1 h, 6 h, 12 h, or 24 h). Levels of cAMP in astrocytes are measured with a [8-^3H]-cAMP assay kit (Amersham TRK 432).

Assay [4] has as its system soluble APP (APPs). In words: Secreted soluble APP in astrocyte culture media (Western blot). The format is cell-based, rat. The settings on record: astrocytes. How it is done:
as §1
To detect secreted APP, culture media is collected after drug treatments and phenylmethylsulfonyl fluoride is added to a final concentration of 2 mM. The media samples are then applied to Sephadex PD-b desalting columns (Pharmacia) and eluted with distilled water. […]
The amount of media or cell protein loaded for sodium dodecyl sulfate-polyacrylamide gel electrophoresis (10-20% SDS PAGE; Bio-Rad) is normalized for the amount of protein per sample. […] Monoclonal antibodies 22C11 and GFAP (both from Boehringer Mannheim) are used to detect the N-terminus of APP and glial fibrillary acidic protein respectively; antisera R37 and R98 (gifts of Dr. F. Kametani, Tokyo Institute of Psychiatry) are used to detected the C-terminus and KPI motifs of APP respectively; antiserum C8 (gift of Dr. D. Selkoe, Women's Hospital, Harvard Medical School, Cambridge, Mass.) is used to detect the C-terminus of APP.
After an overnight incubation, membranes are rinsed in TBST then treated for 1 h with a peroxidase-linked secondary antibody. […] Optical densities of the protein bands are quantitated by laser scanning densitometry (LICE, Bromma, Sweden), and normalized to the densities of those bands generated under control conditions. […]
A general note: In western blotting, separated proteins are transferred to a membrane and probed.

The test system of assay [5] is Abeta. In words: Total Abeta media concentration in CHO cells transfected with human APP gene construct. It counts as cell-based, Chinese Hamster. Details: unit of the concentration uncertain. The text has this: FIG. 3. Effect of Varying Concentrations of Resveratrol on Total Abeta Media Concentration in CHO Cells Transfected with Human APP Gene Construct at Four Hours.

Consider `CCCCC/C=C\C/C=C\C/C=C\C/C=C\CCCC(=O)N[C@H](C)CO` [Methanandamide, methanandamide], for which the “effect on PGE2-stimulated APPh levels” value in assay [1] (10 M methanandamide compared with 50 μM anandamide, cultured astrocytes) was “more efficacious than anandamide”. For the same compound, in assay [2] (10 (unit uncertain)), the “effect on basal cAMP levels” value is listed as “no effect on basal levels”. In assay [2] (10 M with PGE2 50 M), the “effect on PGE2-stimulated cAMP levels” value is reported as “inhibit the PGE2-induced increase in cAMP levels”.
As for `CCCCC[C@H](O)/C=C/[C@H]1[C@H](O)CC(=O)[C@@H]1C/C=C\CCCC(=O)O` [PGE2, prostaglandin E2], the “amounts of astrocytic APP mRNA (4.5 kb) relative to untreated cells” value in assay [3] is reported as “significantly increases”. Moreover, the “increase in APPh levels compared to controls” value in assay [1] (50 μM prostaglandin E2 alone, cultured astrocytes, two experiments) is on record as approximately 75%. The “increase in APPh levels” value in assay [1] (PGE2 alone, cultured astrocytes (FIG. 4)) is “three-fold”. Besides, the “APP secreted in the media (110-130 kD)” value in assay [4] (1, 10 or 100 μM, 24 h) is listed as “also increased”. In addition, the “cAMP levels over basal (control)” value in assay [2] (PGE2 50 M alone, 10-day old cortical neurons) is “about 1.6 fold”.
`Cc1c(C(=O)c2cccc3ccccc23)c2cccc3c2n1[C@H](CN1CCOCC1)CO3` [WIN55212-2]: in assay [1] (100 µM, cultured astrocytes), the “effect on APPh levels in the absence of PGE2” value was “no statistically significant effect”. The “increase in APPh levels with PGE2 stimulation” value in assay [1] (WIN55212-2 100 M added to PGE2, cultured astrocytes) was “limited to two-fold”.
`CCCCC/C=C\C/C=C\C/C=C\C/C=C\CCCC(=O)NCCO` [anandamide]: in assay [1] (50 μM anandamide with 50 μM prostaglandin E2, cultured astrocytes), the “increase in APPh levels over control in presence of PGE2” value is reported as “about 55%”. In addition, in assay [1] (50 µM, without PGE2, cultured astrocytes), the “basal APPh levels (compound by itself)” value is “reduce APPh levels below control values”. Moreover, in assay [2] (50 µM with PGE2 50 M), the “effect on PGE2-stimulated cAMP levels” value is listed as “suppress the PGE2-induced stimulation”. Moreover, in assay [2] (50 (unit uncertain)), the “effect on basal cAMP levels” value is “no effect on basal levels”.
`Oc1ccc(C=Cc2cc(O)cc(O)c2)cc1` [resveratrol]: the “decrease in APP holoprotein” value in assay [1] (10 μM (so in the source) and intermediate concentrations, one hour, astrocytes, p<0.05) was “significant decrease”. In assay [1] (10 μM and higher, one hour, astrocytes, p<0.05), the “levels of cellular amyloidogenic APP holoprotein” value was “decreased to about half”. In assay [4] (10 nM and intermediate concentrations, one hour), the “stimulation of APPs” value is “Significant stimulation”. In addition, the “formation of soluble APP (APPs) over control” value in assay [4] (10 μM and higher, one hour, average of four experiments, p<0.05) is listed as “about two-fold over control”. The “Abeta levels in the media” value in assay [5] (100 (unit uncertain), four-hour treatment) is “decrease to about half”; in assay [5] (lower concentrations (0.1, 1.0, 10 (unit uncertain)), four hours), “not to differ from control”.
